Measurements published in US8772480B2, “Inhibitors of PI3 kinase and/or mTOR” (priority 2009, dated 2014).

Columns and labels:
Format in all cases: biochemical
[1] = target: ProfilerPro Kinase Selectivity Assay Kit kinases (Homo sapiens, UniProt P24941); conditions: CDK2; 1 μM compound concentration
Procedure: (§1) Compounds were profiled using a LabChip® EZ Reader II platform and a ProfilerPro Kinase Selectivity Assay Kit (Caliper Lifesciences Inc., Hopkinton, Mass.). Compounds were tested at a concentration of 1 M in duplicate, with mean data reported as percent of control (POC).

[2] = target: ProfilerPro Kinase Selectivity Assay Kit kinases (Homo sapiens, UniProt Q9BZL6); conditions: PKD2; 1 μM compound concentration
Procedure: as §1

[3] = target: ProfilerPro Kinase Selectivity Assay Kit kinases (Homo sapiens, UniProt P00519); conditions: ABL; 1 μM compound concentration
Procedure: as §1

[4] = target: ProfilerPro Kinase Selectivity Assay Kit kinases (Homo sapiens, UniProt Q13976); conditions: PKGa2; 1 μM compound concentration
Procedure: as §1

[5] = target: ProfilerPro Kinase Selectivity Assay Kit kinases (Homo sapiens, UniProt P28482); conditions: ERK2; 1 μM compound concentration
Procedure: as §1

[6] = target: ProfilerPro Kinase Selectivity Assay Kit kinases (Homo sapiens, UniProt Q16566); conditions: CAMK4; 1 μM compound concentration
Procedure: as §1

[7] = target: ProfilerPro Kinase Selectivity Assay Kit kinases (Homo sapiens, UniProt P12931); conditions: SRC; 1 μM compound concentration
Procedure: as §1

[8] = target: ProfilerPro Kinase Selectivity Assay Kit kinases (Homo sapiens, UniProt P31749); conditions: AKT1; 1 μM compound concentration
Procedure: as §1

[9] = target: ProfilerPro Kinase Selectivity Assay Kit kinases (Homo sapiens, UniProt P06239); conditions: LCK; 1 μM compound concentration
Procedure: as §1

[10] = target: ProfilerPro Kinase Selectivity Assay Kit kinases (Homo sapiens, UniProt O75582); conditions: MSK1; 1 μM compound concentration
Procedure: as §1

[11] = tested on: ProfilerPro Kinase Selectivity Assay Kit kinases; conditions: 1 μM compound concentration
Procedure: as §1

[12] = target: ProfilerPro Kinase Selectivity Assay Kit kinases (Homo sapiens, UniProt P11362); conditions: FGFR1; 1 μM compound concentration
Procedure: as §1

[13] = target: ProfilerPro Kinase Selectivity Assay Kit kinases (Homo sapiens, UniProt P06241); conditions: FYN; 1 μM compound concentration
Procedure: as §1

[14] = target: ProfilerPro Kinase Selectivity Assay Kit kinases (Homo sapiens, UniProt P23443); conditions: p70S6K; 1 μM compound concentration
Procedure: as §1

[15] = target: ProfilerPro Kinase Selectivity Assay Kit kinases (Homo sapiens, UniProt P49841); conditions: GSK3 beta; 1 μM compound concentration
Procedure: as §1

[16] = target: ProfilerPro Kinase Selectivity Assay Kit kinases (Homo sapiens, UniProt Q16539); conditions: p38 alpha; 1 μM compound concentration
Procedure: as §1

[17] = target: ProfilerPro Kinase Selectivity Assay Kit kinases (Homo sapiens, UniProt O14965); conditions: AURORA A; 1 μM compound concentration
Procedure: as §1

[18] = target: ProfilerPro Kinase Selectivity Assay Kit kinases (Homo sapiens, UniProt O96017); conditions: CHK2; 1 μM compound concentration
Procedure: as §1

[19] = target: ProfilerPro Kinase Selectivity Assay Kit kinases (Homo sapiens, UniProt P27361); conditions: ERK1; 1 μM compound concentration
Procedure: as §1

[20] = target: ProfilerPro Kinase Selectivity Assay Kit kinases (Homo sapiens, UniProt P04049); conditions: cRAF; 1 μM compound concentration
Procedure: as §1

[21] = target: ProfilerPro Kinase Selectivity Assay Kit kinases (Homo sapiens, UniProt P08069); conditions: IGF1R; 1 μM compound concentration
Procedure: as §1

[22] = target: ProfilerPro Kinase Selectivity Assay Kit kinases (Homo sapiens, UniProt Q13627); conditions: DYRK1a; 1 μM compound concentration
Procedure: as §1

[23] = target: ProfilerPro Kinase Selectivity Assay Kit kinases (Homo sapiens, UniProt P43405); conditions: SYK; 1 μM compound concentration
Procedure: as §1

[24] = target: ProfilerPro Kinase Selectivity Assay Kit kinases (Homo sapiens, UniProt Q15418); conditions: RSK1; 1 μM compound concentration
Procedure: as §1

[25] = target: ProfilerPro Kinase Selectivity Assay Kit kinases (Homo sapiens, UniProt Q05513); conditions: PKC zeta; 1 μM compound concentration
Procedure: as §1

[26] = target: ProfilerPro Kinase Selectivity Assay Kit kinases (Homo sapiens, UniProt Q13188); conditions: MST2; 1 μM compound concentration
Procedure: as §1

[27] = target: ProfilerPro Kinase Selectivity Assay Kit kinases (Homo sapiens, UniProt P07948); conditions: LYN; 1 μM compound concentration
Procedure: as §1

[28] = target: ProfilerPro Kinase Selectivity Assay Kit kinases (Homo sapiens, UniProt P08581); conditions: cMET; 1 μM compound concentration
Procedure: as §1

[29] = target: ProfilerPro Kinase Selectivity Assay Kit kinases (Homo sapiens, UniProt P35968); conditions: KDR; 1 μM compound concentration
Procedure: as §1

[30] = target: ProfilerPro Kinase Selectivity Assay Kit kinases (Homo sapiens, UniProt P36888); conditions: FLT3; 1 μM compound concentration
Procedure: as §1

[31] = target: ProfilerPro Kinase Selectivity Assay Kit kinases (Homo sapiens, UniProt O00141); conditions: SGK1; 1 μM compound concentration
Procedure: as §1

Sequence of ProfilerPro Kinase Selectivity Assay Kit kinases (Homo sapiens, UniProt Q16539) (Q16539 2-360 limits assumed): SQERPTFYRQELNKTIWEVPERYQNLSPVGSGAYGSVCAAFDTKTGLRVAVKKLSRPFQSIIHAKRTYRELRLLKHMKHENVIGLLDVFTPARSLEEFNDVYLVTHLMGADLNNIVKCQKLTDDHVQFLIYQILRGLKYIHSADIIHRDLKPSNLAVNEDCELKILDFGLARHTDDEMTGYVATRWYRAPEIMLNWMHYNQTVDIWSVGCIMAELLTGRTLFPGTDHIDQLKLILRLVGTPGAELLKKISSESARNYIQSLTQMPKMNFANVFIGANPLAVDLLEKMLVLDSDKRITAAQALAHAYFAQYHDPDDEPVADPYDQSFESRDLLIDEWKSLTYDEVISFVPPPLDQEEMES
Sequence of ProfilerPro Kinase Selectivity Assay Kit kinases (Homo sapiens, UniProt P07948) (P07948 2-512 limits assumed): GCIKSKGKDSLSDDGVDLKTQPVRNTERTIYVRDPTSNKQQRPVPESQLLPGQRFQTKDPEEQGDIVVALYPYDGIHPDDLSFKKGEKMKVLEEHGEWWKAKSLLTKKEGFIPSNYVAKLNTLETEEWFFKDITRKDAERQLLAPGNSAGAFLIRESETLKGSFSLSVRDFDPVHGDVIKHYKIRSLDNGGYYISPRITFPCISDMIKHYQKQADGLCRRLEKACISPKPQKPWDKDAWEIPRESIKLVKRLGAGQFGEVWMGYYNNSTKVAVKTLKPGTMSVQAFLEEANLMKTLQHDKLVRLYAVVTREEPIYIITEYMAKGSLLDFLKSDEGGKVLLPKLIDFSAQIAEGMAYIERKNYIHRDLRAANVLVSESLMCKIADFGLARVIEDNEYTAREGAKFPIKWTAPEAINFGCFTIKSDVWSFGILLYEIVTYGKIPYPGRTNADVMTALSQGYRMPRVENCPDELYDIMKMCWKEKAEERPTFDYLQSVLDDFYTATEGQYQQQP
Sequence of ProfilerPro Kinase Selectivity Assay Kit kinases (Homo sapiens, UniProt P06241) (P06241 2-537 limits assumed): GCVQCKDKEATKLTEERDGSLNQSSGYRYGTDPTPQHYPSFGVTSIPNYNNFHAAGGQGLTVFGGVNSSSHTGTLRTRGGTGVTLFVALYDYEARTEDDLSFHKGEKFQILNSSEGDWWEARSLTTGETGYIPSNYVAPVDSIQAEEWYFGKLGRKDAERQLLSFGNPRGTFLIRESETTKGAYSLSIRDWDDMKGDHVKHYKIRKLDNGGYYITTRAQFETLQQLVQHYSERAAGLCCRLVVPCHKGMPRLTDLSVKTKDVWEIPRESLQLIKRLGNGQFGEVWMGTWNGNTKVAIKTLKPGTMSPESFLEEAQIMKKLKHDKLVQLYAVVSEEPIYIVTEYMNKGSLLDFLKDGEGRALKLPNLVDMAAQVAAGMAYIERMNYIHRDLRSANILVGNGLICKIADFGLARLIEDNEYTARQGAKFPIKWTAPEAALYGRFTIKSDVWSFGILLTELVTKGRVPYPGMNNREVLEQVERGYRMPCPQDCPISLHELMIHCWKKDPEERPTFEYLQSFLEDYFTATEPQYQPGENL
Sequence of ProfilerPro Kinase Selectivity Assay Kit kinases (Homo sapiens, UniProt Q13976) (Q13976 2-671 limits assumed): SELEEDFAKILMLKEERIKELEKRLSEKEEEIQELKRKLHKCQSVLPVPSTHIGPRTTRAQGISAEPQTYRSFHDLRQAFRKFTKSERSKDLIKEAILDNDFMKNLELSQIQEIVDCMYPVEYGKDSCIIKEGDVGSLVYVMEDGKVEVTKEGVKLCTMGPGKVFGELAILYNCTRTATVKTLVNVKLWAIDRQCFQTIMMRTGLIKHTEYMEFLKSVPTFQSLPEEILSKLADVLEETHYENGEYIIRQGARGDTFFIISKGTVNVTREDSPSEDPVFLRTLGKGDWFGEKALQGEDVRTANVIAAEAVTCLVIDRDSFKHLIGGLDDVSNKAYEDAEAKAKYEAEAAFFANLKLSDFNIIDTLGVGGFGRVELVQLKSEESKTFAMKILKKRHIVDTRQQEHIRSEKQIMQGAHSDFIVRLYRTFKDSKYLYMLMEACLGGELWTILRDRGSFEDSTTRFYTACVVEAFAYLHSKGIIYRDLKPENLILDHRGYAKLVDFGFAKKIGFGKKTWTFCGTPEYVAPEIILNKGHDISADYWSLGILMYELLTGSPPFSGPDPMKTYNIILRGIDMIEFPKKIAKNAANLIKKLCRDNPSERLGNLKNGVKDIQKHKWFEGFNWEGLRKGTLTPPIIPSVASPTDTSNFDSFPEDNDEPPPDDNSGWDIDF
Sequence of ProfilerPro Kinase Selectivity Assay Kit kinases (Homo sapiens, UniProt P27361) (P27361 2-379 limits assumed): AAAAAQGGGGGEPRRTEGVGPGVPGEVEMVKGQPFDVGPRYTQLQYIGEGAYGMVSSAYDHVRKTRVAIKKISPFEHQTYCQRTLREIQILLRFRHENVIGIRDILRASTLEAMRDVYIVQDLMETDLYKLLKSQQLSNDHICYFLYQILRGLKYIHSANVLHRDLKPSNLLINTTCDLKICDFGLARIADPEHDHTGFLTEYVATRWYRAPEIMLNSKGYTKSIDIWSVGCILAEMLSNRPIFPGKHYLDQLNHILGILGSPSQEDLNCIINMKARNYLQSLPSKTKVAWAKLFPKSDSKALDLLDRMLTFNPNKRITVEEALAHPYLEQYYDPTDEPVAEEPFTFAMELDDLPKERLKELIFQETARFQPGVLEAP
Sequence of ProfilerPro Kinase Selectivity Assay Kit kinases (Homo sapiens, UniProt P11362) (P11362 22-822 limits assumed): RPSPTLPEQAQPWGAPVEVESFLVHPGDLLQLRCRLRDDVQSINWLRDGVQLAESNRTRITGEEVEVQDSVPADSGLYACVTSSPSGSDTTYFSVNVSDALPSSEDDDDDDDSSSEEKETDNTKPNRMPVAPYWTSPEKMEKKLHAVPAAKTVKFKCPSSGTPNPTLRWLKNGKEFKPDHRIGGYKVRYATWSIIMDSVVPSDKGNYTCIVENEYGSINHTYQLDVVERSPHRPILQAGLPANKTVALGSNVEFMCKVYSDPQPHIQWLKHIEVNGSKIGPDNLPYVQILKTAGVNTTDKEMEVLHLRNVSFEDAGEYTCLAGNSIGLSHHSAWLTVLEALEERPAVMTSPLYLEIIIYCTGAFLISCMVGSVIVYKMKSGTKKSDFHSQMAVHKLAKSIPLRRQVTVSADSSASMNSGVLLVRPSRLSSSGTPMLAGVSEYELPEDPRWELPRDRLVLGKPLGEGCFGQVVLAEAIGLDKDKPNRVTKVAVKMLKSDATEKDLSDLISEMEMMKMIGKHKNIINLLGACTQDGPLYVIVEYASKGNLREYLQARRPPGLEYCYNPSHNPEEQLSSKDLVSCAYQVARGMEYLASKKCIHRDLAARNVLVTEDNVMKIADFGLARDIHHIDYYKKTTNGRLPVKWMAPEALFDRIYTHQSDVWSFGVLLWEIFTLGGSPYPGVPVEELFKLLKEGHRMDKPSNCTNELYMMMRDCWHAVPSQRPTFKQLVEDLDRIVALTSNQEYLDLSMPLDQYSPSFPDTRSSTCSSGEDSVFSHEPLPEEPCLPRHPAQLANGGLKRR
Sequence of ProfilerPro Kinase Selectivity Assay Kit kinases (Homo sapiens, UniProt P35968) (P35968 20-1356 limits assumed): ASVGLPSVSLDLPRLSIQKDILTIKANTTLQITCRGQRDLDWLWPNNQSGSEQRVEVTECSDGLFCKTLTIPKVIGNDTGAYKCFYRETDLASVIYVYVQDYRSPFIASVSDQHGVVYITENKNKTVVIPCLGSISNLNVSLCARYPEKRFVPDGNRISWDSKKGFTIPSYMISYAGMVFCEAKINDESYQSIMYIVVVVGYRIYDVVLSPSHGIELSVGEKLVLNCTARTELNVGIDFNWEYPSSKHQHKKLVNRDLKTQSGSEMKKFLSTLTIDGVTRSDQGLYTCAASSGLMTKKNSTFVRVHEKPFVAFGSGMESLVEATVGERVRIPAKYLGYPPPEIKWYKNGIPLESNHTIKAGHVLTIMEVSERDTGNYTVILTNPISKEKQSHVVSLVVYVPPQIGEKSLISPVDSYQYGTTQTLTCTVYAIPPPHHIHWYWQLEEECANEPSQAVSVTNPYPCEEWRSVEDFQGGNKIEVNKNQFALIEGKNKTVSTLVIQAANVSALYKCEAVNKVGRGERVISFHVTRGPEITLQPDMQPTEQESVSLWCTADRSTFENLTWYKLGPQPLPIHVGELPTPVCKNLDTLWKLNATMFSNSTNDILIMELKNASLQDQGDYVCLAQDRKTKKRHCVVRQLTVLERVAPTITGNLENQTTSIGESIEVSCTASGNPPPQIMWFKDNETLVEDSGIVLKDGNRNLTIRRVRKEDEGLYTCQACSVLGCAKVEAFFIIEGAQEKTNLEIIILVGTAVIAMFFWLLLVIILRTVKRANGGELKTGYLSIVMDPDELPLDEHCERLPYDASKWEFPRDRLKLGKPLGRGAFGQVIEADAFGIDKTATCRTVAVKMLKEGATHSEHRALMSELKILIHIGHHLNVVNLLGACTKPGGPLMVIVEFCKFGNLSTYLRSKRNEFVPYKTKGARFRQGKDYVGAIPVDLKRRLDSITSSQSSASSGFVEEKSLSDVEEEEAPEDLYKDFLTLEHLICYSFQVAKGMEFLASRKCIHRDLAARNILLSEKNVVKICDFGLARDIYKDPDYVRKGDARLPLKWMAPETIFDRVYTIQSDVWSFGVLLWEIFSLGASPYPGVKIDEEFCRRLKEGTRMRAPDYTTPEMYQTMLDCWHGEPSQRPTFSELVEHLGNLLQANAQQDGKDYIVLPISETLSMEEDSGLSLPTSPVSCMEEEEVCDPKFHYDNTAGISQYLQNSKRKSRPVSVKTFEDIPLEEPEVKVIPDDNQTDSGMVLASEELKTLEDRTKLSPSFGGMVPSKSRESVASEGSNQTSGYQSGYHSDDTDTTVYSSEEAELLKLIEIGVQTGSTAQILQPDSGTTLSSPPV
Sequence of ProfilerPro Kinase Selectivity Assay Kit kinases (Homo sapiens, UniProt P28482) (P28482 2-360 limits assumed): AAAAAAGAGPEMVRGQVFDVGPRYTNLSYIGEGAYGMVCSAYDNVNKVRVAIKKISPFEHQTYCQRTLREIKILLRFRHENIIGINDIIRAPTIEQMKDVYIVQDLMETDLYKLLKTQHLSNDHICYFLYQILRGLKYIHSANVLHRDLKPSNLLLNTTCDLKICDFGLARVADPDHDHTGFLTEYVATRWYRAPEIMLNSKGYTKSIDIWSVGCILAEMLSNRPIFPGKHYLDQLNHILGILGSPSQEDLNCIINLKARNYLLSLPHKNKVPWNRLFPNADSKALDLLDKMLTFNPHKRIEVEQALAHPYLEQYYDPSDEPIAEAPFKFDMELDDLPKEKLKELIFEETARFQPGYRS

SMILES | POC (Percent of control) CDK2 [1] | POC (Percent of control) PKD2 [2] | POC (Percent of control) ABL [3] | POC (Percent of control) PKGa2 [4] | POC (Percent of control) ERK2 [5] | POC (Percent of control) CAMK4 [6] | POC (Percent of control) SRC [7] | POC (Percent of control) AKT1 [8] | POC (Percent of control) LCK [9] | POC (Percent of control) MSK1 [10] | POC (Percent of control) AMPK [11] | POC (Percent of control) CAMK2 [11] | POC (Percent of control) PKC beta2 [11] | POC (Percent of control) TAK1 [11] | POC (Percent of control) FGFR1 [12] | POC (Percent of control) FYN [13] | POC (Percent of control) p70S6K [14] | POC (Percent of control) GSK3 beta [15] | POC (Percent of control) p38 alpha [16] | POC (Percent of control) AURORA A [17] | other results
Cc1cnc(Nc2cccc3[nH]ncc23)c(-c2nc(C)nc(N)n2)c1 [Example 47, N-(3-(4-Amino-6-Methyl-1,3,5-Triazin-2-yl)-5-Methylpyridine-2-yl)-1H-Indazol-4-Amine] | 93 POC | 113 POC | 81 POC | 80 POC | 104 POC | 91 POC | 79 POC | 50 POC | 61 POC | 76 POC | 87 POC | 126 POC | 100 POC | 106 POC | 94 POC | 87 POC | 60 POC | 97 POC | 91 POC | 85 POC | POC (Percent of control) CHK2 [18]: 99 POC; POC (Percent of control) ERK1 [19]: 103 POC; POC (Percent of control) cRAF [20]: 56 POC; POC (Percent of control) IGF1R [21]: 82 POC; POC (Percent of control) DYRK1a [22]: 82 POC; POC (Percent of control) SYK [23]: 95 POC; POC (Percent of control) RSK1 [24]: 105 POC; POC (Percent of control) PKC zeta [25]: 102 POC; POC (Percent of control) MST2 [26]: 101 POC; POC (Percent of control) LYN [27]: 55 POC; POC (Percent of control) cMET [28]: 102 POC; POC (Percent of control) KDR [29]: 86 POC; POC (Percent of control) FLT3 [30]: 89 POC; POC (Percent of control) SGK1 [31]: 89 POC
COc1ccc(Nc2ncccc2-c2nc(C)nc3[nH]cnc23)cn1 [Example 58, N-(6-methoxypyridin-3-yl)-3-(2-methyl-9H-purin-6-yl)pyridin-2-amine] | 99 POC | 92 POC | 99 POC | 97 POC | 103 POC | 95 POC | 102 POC | 106 POC | 98 POC | 98 POC | 99 POC | 103 POC | 161 POC | 107 POC | 94 POC | 103 POC | 98 POC | 101 POC | 98 POC | 94 POC | POC (Percent of control) CHK2 [18]: 99 POC; POC (Percent of control) ERK1 [19]: 101 POC; POC (Percent of control) cRAF [20]: 99 POC; POC (Percent of control) IGF1R [21]: 92 POC; POC (Percent of control) DYRK1a [22]: 93 POC; POC (Percent of control) SYK [23]: 86 POC; POC (Percent of control) RSK1 [24]: 94 POC; POC (Percent of control) PKC zeta [25]: 142 POC; POC (Percent of control) MST2 [26]: 100 POC; POC (Percent of control) LYN [27]: 100 POC; POC (Percent of control) cMET [28]: 103 POC; POC (Percent of control) KDR [29]: 93 POC; POC (Percent of control) FLT3 [30]: 112 POC; POC (Percent of control) SGK1 [31]: 97 POC
